Test results as given in paper PMC7265341, “Quantifying CDK inhibitor selectivity in live cells” (Nature Communications, 2020).
Read-outs that look alike come from different tables or passages of the source.

How the values were obtained:
CDK1/Cyclin E1 = CDK1/Cyclin E1 (Homo sapiens, UniProt P06493); assay: NanoBRET live-cell target engagement, CDK1-NanoLuc/Cyclin E1 in HEK-293; format: binding; conditions: 10µM, read-out: CDK1/E1 Inhibition at 10µM (%)
CDK4/Cyclin D1 = CDK4/Cyclin D1 (Homo sapiens, UniProt P11802); assay: NanoBRET live-cell target engagement, NanoLuc-CDK4/Cyclin D1 in HEK-293; format: binding; conditions: 10µM, read-out: CDK4/D1 Inhibition at 10µM (%)
CDK5/CDK5R1 = CDK5/CDK5R1 (Homo sapiens, UniProt Q00535); assay: NanoBRET live-cell target engagement, CDK5-NanoLuc/CDK5R1 in HEK-293; format: binding; conditions: 10µM, read-out: CDK5/CDK5R1 Inhibition at 10µM (%)
CDK6/Cyclin D1 = CDK6/Cyclin D1 (Homo sapiens, UniProt Q00534); assay: NanoBRET live-cell target engagement, NanoLuc-CDK6/Cyclin D1 in HEK-293; format: binding; conditions: 10µM, read-out: CDK6/D1 Inhibition at 10µM (%)
CDK7 = CDK7 (Homo sapiens, UniProt P50613); assay: NanoBRET live-cell target engagement, NanoLuc-CDK7 in HEK-293; format: binding; conditions: read-out: CDK7 Inhibition at 10µM (%), 10µM
CDK8/Cyclin C = CDK8/Cyclin C (Homo sapiens, UniProt P49336); assay: NanoBRET live-cell target engagement, NanoLuc-CDK8/Cyclin C in HEK-293; format: binding; conditions: 10µM, read-out: CDK8/C Inhibition at 10µM (%)
CDK9/Cyclin K = CDK9/Cyclin K (Homo sapiens, UniProt P50750); assay: NanoBRET live-cell target engagement, NanoLuc-CDK9/Cyclin K in HEK-293; format: binding; conditions: 10µM, read-out: CDK9/K Inhibition at 10µM (%)
CDK11A/Cyclin L2 = biological target: T1, CDK11A/Cyclin L2 (Homo sapiens, UniProt Q9UQ88); assay: NanoBRET live-cell target engagement, CDK11A-NanoLuc/Cyclin L2 in HEK-293; format: binding; conditions: 10µM, read-out: CDK11a/L2 Inhibition at 10µM (%)
T1 sequence (Q9UQ88 1-783): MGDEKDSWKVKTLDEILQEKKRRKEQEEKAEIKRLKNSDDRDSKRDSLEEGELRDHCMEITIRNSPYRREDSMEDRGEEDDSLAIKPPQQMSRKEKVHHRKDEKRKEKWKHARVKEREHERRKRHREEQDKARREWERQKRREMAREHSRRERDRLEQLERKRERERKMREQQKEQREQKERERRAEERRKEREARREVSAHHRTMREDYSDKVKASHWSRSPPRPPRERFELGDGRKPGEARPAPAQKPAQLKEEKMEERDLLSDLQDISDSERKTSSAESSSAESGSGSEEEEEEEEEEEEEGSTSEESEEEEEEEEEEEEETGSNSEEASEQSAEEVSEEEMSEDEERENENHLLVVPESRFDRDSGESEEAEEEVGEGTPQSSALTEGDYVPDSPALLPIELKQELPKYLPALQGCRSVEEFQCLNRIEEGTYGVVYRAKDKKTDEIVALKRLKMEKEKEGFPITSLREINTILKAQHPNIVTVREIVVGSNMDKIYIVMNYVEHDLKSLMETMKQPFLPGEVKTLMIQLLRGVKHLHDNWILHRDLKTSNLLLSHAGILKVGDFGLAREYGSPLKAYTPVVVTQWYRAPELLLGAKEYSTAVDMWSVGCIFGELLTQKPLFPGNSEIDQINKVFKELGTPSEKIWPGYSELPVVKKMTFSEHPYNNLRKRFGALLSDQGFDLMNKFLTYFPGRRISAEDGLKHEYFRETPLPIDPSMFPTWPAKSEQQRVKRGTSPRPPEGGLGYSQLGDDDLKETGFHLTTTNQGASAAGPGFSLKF

CDK11B/Cyclin L2 = CDK11B/Cyclin L2 (Homo sapiens, UniProt P21127); assay: NanoBRET live-cell target engagement, CDK11B-NanoLuc/Cyclin L2 in HEK-293; format: binding; conditions: 10µM, read-out: CDK11b/L2 Inhibition at 10µM (%)
CDK12/Cyclin K = CDK12/Cyclin K (Homo sapiens, UniProt Q9NYV4); assay: NanoBRET live-cell target engagement, CDK12-NanoLuc/Cyclin K in HEK-293; format: binding; conditions: for inhibition at 10 µM: read-out: CDK12/K Inhibition at 10µM (%)
CDK13/Cyclin K = CDK13/Cyclin K (Homo sapiens, UniProt Q14004); assay: NanoBRET live-cell target engagement, CDK13-NanoLuc/Cyclin K in HEK-293; format: binding; conditions: for inhibition at 10 µM: read-out: CDK13/K Inhibition at 10µM (%)
CDK14/Cyclin Y = CDK14/Cyclin Y (Homo sapiens, UniProt O94921); assay: NanoBRET live-cell target engagement, CDK14-NanoLuc/Cyclin Y in HEK-293; format: binding; conditions: 10µM, read-out: CDK14/Y Inhibition at 10µM (%)
CDK15/Cyclin Y = CDK15/Cyclin Y (Homo sapiens, UniProt Q96Q40); assay: NanoBRET live-cell target engagement, NanoLuc-CDK15/Cyclin Y in HEK-293; format: binding; conditions: 10µM, read-out: CDK15/Y Inhibition at 10µM (%)
CDK16/Cyclin Y = CDK16/Cyclin Y (Homo sapiens, UniProt Q00536); assay: NanoBRET live-cell target engagement, CDK16-NanoLuc/Cyclin Y in HEK-293; format: binding; conditions: 10µM, read-out: CDK16/Y Inhibition at 10µM (%)
CDK17/Cyclin Y = CDK17/Cyclin Y (Homo sapiens, UniProt Q00537); assay: NanoBRET live-cell target engagement, CDK17-NanoLuc/Cyclin Y in HEK-293; format: binding; conditions: 10µM, read-out: CDK17/Y Inhibition at 10µM (%)
CDK18/Cyclin Y = CDK18/Cyclin Y (Homo sapiens, UniProt Q07002); assay: NanoBRET live-cell target engagement, CDK18-NanoLuc/Cyclin Y in HEK-293; format: binding; conditions: 10µM, read-out: CDK18/Y Inhibition at 10µM (%)
CDK20/Cyclin H = CDK20/Cyclin H (Homo sapiens, UniProt Q8IZL9); assay: NanoBRET live-cell target engagement, NanoLuc-CDK20/Cyclin H in HEK-293; format: binding; conditions: 10µM, read-out: CDK20/H Inhibition at 10µM (%)
CDK19/Cyclin C = CDK19/Cyclin C (Homo sapiens, UniProt Q9BWU1); assay: NanoBRET live-cell target engagement, NanoLuc-CDK19/Cyclin C in HEK-293; conditions: read-out: CDK19/C Inhibition at 10µM (%), 10µM
CDK10/Cyclin L2 = CDK10/Cyclin L2 (Homo sapiens, UniProt Q15131); assay: NanoBRET live-cell target engagement, CDK10-NanoLuc/Cyclin L2 in HEK-293; conditions: read-out: CDK10/L2 Inhibition at 10µM (%), 10µM
Chain of CDK10/Cyclin L2 (Q15131 whole entry): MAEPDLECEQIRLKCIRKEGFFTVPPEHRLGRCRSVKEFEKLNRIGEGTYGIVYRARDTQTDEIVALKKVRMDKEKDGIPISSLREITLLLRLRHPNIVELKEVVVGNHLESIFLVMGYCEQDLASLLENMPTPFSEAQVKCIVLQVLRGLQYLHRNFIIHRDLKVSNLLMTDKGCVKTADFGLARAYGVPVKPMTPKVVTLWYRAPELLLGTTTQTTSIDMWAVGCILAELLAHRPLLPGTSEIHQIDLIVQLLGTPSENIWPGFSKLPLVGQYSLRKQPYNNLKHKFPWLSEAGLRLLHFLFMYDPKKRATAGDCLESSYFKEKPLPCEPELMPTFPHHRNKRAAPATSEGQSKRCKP

Chain of CDK11B/Cyclin L2 (P21127 1-782 isoform P21127-2): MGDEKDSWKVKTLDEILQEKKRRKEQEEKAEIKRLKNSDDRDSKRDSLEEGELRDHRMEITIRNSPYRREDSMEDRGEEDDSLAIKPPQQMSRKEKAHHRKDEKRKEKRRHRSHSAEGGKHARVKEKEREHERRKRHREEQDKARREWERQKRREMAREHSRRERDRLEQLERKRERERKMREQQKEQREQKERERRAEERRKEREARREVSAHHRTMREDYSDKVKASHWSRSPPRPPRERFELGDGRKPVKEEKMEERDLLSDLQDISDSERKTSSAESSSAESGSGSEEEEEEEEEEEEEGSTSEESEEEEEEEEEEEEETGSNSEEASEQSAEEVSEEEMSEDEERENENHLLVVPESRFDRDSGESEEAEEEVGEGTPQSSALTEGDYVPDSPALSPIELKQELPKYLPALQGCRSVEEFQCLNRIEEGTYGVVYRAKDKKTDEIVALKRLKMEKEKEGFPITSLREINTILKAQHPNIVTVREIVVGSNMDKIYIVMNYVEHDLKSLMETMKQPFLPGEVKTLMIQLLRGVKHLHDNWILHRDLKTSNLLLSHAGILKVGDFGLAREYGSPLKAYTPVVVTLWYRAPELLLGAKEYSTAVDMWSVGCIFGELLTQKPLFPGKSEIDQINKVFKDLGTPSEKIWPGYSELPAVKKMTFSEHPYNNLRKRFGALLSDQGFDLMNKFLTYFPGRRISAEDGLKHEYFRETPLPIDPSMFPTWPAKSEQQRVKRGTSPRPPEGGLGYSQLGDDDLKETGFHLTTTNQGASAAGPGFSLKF
Chain of CDK14/Cyclin Y (O94921 whole entry): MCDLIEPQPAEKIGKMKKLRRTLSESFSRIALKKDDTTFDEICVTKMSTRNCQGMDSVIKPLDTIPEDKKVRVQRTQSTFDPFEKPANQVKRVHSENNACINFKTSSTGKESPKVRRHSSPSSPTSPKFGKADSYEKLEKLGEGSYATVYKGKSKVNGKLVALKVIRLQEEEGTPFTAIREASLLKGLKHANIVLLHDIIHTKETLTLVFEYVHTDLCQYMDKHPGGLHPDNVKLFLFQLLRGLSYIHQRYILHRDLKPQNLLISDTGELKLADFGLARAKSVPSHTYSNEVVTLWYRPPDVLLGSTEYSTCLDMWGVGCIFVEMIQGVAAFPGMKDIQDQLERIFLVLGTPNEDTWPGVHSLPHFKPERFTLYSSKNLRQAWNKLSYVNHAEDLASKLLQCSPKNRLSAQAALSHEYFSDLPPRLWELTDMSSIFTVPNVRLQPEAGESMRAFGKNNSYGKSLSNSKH
Chain of CDK14/Cyclin Y (Q8ND76 whole entry partner): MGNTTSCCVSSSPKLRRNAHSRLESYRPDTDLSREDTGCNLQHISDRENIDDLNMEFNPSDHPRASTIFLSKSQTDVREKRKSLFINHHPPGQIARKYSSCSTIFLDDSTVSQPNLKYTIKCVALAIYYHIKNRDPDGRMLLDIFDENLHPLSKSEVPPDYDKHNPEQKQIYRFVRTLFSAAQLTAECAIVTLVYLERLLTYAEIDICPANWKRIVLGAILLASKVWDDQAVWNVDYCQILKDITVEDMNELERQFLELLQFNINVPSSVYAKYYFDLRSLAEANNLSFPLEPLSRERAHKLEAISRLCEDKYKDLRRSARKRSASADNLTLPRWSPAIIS
Chain of CDK7 (P50613 whole entry): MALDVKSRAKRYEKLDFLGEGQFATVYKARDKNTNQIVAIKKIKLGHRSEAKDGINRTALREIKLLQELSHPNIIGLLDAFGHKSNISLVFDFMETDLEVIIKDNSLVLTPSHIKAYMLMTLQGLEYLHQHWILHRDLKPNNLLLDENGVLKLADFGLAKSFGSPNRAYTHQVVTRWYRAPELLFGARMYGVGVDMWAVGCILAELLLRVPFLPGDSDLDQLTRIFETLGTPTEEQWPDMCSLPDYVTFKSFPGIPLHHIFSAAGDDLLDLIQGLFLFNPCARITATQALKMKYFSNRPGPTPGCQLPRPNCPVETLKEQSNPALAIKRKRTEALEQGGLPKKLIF
Chain of CDK6/Cyclin D1 (Q00534 whole entry): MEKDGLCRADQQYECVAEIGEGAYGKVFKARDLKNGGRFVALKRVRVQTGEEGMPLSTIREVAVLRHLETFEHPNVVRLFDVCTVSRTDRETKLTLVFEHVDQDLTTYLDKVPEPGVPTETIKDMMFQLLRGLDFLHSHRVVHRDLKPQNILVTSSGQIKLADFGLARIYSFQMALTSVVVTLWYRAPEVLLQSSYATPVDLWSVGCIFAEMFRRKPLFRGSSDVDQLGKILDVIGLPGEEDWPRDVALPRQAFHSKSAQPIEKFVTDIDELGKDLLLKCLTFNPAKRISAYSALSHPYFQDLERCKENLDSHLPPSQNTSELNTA
Chain of CDK6/Cyclin D1 (P24385 whole entry partner): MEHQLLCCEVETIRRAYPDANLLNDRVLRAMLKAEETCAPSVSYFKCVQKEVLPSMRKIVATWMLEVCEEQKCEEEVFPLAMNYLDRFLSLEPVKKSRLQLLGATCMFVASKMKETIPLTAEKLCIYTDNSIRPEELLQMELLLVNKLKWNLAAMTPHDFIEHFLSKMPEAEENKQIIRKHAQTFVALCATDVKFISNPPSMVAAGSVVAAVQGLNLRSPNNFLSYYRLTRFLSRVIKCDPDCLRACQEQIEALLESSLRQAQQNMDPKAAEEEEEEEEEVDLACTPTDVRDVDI
Chain of CDK15/Cyclin Y (Q96Q40 whole entry): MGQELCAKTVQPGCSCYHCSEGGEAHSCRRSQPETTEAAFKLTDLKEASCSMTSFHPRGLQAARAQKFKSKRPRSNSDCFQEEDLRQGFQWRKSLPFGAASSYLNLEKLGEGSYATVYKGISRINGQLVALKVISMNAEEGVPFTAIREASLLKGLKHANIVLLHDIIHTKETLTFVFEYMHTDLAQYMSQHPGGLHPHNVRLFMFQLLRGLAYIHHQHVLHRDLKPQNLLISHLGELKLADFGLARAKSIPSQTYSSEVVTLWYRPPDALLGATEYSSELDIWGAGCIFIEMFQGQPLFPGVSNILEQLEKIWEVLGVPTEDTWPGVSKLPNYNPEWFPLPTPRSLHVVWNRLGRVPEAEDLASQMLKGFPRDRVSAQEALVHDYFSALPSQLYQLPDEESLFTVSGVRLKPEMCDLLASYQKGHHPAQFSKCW
Chain of CDK15/Cyclin Y (Q8ND76 whole entry partner): as the sequence (Q8ND76 whole entry partner) above
Chain of CDK5/CDK5R1 (Q00535 whole entry): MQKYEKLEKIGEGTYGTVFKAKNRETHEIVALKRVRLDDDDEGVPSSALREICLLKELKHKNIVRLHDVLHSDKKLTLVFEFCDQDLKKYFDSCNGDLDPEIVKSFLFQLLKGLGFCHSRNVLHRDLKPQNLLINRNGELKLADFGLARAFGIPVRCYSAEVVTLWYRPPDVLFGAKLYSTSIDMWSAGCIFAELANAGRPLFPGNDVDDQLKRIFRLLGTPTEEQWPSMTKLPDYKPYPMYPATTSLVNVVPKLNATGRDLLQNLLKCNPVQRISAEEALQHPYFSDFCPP
Chain of CDK5/CDK5R1 (Q15078 whole entry partner): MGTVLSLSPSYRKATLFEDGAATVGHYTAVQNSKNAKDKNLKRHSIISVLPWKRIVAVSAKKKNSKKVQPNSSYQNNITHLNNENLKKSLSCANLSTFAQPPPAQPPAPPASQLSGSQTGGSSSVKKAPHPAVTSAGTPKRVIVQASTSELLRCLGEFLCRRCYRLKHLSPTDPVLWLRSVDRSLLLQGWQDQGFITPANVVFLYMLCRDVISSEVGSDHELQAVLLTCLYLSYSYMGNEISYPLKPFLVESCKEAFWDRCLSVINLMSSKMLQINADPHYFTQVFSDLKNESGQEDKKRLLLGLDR
Chain of CDK19/Cyclin C (Q9BWU1 whole entry): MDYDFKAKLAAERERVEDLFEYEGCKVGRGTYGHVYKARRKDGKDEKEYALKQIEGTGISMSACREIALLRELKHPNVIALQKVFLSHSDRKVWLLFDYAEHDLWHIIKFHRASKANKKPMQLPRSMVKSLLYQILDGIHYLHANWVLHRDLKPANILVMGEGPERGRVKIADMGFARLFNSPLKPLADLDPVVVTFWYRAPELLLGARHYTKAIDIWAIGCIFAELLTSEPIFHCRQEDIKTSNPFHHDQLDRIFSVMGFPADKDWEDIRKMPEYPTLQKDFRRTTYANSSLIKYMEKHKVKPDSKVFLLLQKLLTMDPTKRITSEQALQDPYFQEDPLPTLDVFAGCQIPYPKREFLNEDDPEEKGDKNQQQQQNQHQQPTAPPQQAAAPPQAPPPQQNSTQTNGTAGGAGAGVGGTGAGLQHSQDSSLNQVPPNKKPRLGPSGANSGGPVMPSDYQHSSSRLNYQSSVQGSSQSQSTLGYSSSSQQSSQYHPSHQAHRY
Chain of CDK19/Cyclin C (P24863 whole entry partner): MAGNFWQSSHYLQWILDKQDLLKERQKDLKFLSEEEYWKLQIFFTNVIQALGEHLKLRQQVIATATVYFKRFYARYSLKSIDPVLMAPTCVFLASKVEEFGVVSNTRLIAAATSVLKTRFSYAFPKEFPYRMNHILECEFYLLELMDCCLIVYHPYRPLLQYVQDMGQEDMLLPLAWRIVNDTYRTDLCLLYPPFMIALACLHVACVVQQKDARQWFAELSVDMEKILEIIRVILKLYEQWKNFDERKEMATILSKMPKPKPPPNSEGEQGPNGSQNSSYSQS

Compound: CN(C)C/C=C/C(=O)Nc1ccc(C(=O)N2CCC[C@@H](Nc3ncc(Cl)c(-c4c[nH]c5ccccc45)n3)C2)cc1 [THZ531]
- inhibition at 10 µM (CDK1/Cyclin E1; average of experiments): 61.4%
- inhibition at 10 µM (CDK1/Cyclin E1; independent experiment 1): 48.6%
- inhibition at 10 µM (CDK1/Cyclin E1; independent experiment 2): 74.1%
- inhibition at 10 µM (CDK4/Cyclin D1; average of experiments): 54.6%
- inhibition at 10 µM (CDK4/Cyclin D1; independent experiment 1): 47.7%
- inhibition at 10 µM (CDK4/Cyclin D1; independent experiment 2): 61.5%
- inhibition at 10 µM (CDK5/CDK5R1; average of experiments): 45.3%
- inhibition at 10 µM (CDK5/CDK5R1; independent experiment 1): 30.8%
- inhibition at 10 µM (CDK5/CDK5R1; independent experiment 2): 59.9%
- inhibition at 10 µM (CDK6/Cyclin D1; average of experiments): 36.6%
- inhibition at 10 µM (CDK6/Cyclin D1; independent experiment 1): 32%
- inhibition at 10 µM (CDK6/Cyclin D1; independent experiment 2): 41.3%
- inhibition at 10 µM (CDK7; average of experiments): 78.1%
- inhibition at 10 µM (CDK7; independent experiment 1): 74.8%
- inhibition at 10 µM (CDK7; independent experiment 2): 81.5%
- inhibition at 10 µM (CDK8/Cyclin C; average of experiments): 41%
- inhibition at 10 µM (CDK8/Cyclin C; independent experiment 1): 30.9%
- inhibition at 10 µM (CDK8/Cyclin C; independent experiment 2): 51.2%
- inhibition at 10 µM (CDK9/Cyclin K; average of experiments): 81.1%
- inhibition at 10 µM (CDK9/Cyclin K; independent experiment 1): 78.5%
- inhibition at 10 µM (CDK9/Cyclin K; independent experiment 2): 83.8%
- inhibition at 10 µM (CDK11A/Cyclin L2; average of experiments): 46.9%
- inhibition at 10 µM (CDK11A/Cyclin L2; independent experiment 1): 27.8%
- inhibition at 10 µM (CDK11A/Cyclin L2; independent experiment 2): 65.9%
- inhibition at 10 µM (CDK11B/Cyclin L2; average of experiments): 32.4%
- inhibition at 10 µM (CDK11B/Cyclin L2; independent experiment 1): 30%
- inhibition at 10 µM (CDK11B/Cyclin L2; independent experiment 2): 34.7%
- inhibition at 10 µM (CDK12/Cyclin K; average of experiments): 65.1%
- inhibition at 10 µM (CDK12/Cyclin K; independent experiment 1): 75.9%
- inhibition at 10 µM (CDK12/Cyclin K; independent experiment 2): 54.3%
- IC50 (CDK12/Cyclin K; independent experiment 1, read-out: CDK12/K IC50): 540 nM
- IC50 (CDK12/Cyclin K; independent experiment 2, read-out: CDK12/K IC50): 1000 nM
- IC50 (CDK12/Cyclin K; live HEK-293, 2 h, mean ± S.E.M. (n=3) or mean (n=2), read-out: IC50 for CDK/cyclin complexes, CDK12/K): 770 nM
- IC50 (CDK12/Cyclin K; live HEK-293, read-out: CDK12 engagement potency): < 1000 nM
- CDK12 occupancy at 10 µM (CDK12/Cyclin K; primary screen, live HEK-293): occupied
- receptor occupancy at 10 µM (CDK12/Cyclin K; read-out: CDK12 occupancy at 10 µM): ~50%
- inhibition at 10 µM (CDK13/Cyclin K; average of experiments): 53.1%
- inhibition at 10 µM (CDK13/Cyclin K; independent experiment 1): 48.6%
- inhibition at 10 µM (CDK13/Cyclin K; independent experiment 2): 57.6%
- IC50 (CDK13/Cyclin K; live HEK-293, response to reviewers, read-out: CDK13 IC50 (follow up)): ~2000 nM
- CDK13 occupancy at 10 µM (CDK13/Cyclin K; primary screen, live HEK-293): occupied
- receptor occupancy at 10 µM (CDK13/Cyclin K; primary screen, live HEK-293): ~50%
- inhibition at 10 µM (CDK14/Cyclin Y; average of experiments): 41.8%
- inhibition at 10 µM (CDK14/Cyclin Y; independent experiment 1): 22.4%
- inhibition at 10 µM (CDK14/Cyclin Y; independent experiment 2): 61.2%
- inhibition at 10 µM (CDK15/Cyclin Y; average of experiments): 80.5%
- inhibition at 10 µM (CDK15/Cyclin Y; independent experiment 1): 75.6%
- inhibition at 10 µM (CDK15/Cyclin Y; independent experiment 2): 85.5%
- inhibition at 10 µM (CDK16/Cyclin Y; independent experiment 1): 75.1%
- inhibition at 10 µM (CDK16/Cyclin Y; independent experiment 2): 49.9%
- inhibition at 10 µM (CDK17/Cyclin Y; average of experiments): 63%
- inhibition at 10 µM (CDK17/Cyclin Y; independent experiment 1): 73.4%
- inhibition at 10 µM (CDK17/Cyclin Y; independent experiment 2): 52.6%
- inhibition at 10 µM (CDK18/Cyclin Y; average of experiments): 64.6%
- inhibition at 10 µM (CDK18/Cyclin Y; independent experiment 1): 71.7%
- inhibition at 10 µM (CDK18/Cyclin Y; independent experiment 2): 57.6%
- inhibition at 10 µM (CDK20/Cyclin H; independent experiment 1): 30.9%
- inhibition at 10 µM (CDK20/Cyclin H; independent experiment 2): 52.4%
- inhibition at 10 µM (CDK19/Cyclin C; average of experiments): 55.3%
- inhibition at 10 µM (CDK19/Cyclin C; independent experiment 1): 58.1%
- inhibition at 10 µM (CDK19/Cyclin C; independent experiment 2): 52.6%
- inhibition at 10 µM (CDK10/Cyclin L2; average of experiments): 51%
- inhibition at 10 µM (CDK10/Cyclin L2; independent experiment 1): 41.2%
- inhibition at 10 µM (CDK10/Cyclin L2; independent experiment 2): 60.7%
